Results: patent publication US20250281451A1, “COMPOSITIONS AND METHODS FOR MODULATING SLEEP AND USES THEREOF” (Brightseed, Inc., priority 2022, published 2025)
“Also recorded” adds a separate entry of the source.

What was measured:
cells = experiment: cell viability, XTT assay; format: cell-based; conditions: at the IC50 μM concentration of the compound
Experimental: (§1) The plants described herein were tested to determine the concentration, in μM, to achieve the relative IC50 of OR2 receptor, the absolute percent agonism achieved at the μM concentration of the relative OR2 IC50, the percentage receptor activity at the concentration, in μM, needed to achieve IC50 in OR2, the percentage cell viability, measured by XTT assay, at the IC50 μM concentration, the concentration of the fraction, in fold dilution, needed to achieve IC50 of OR2, and the percentage receptor activity at the concentration of the fraction, in fold dilution, needed to achieve IC50 of OR2.

Orx1 = molecular target: T1, Orx1 (Homo sapiens, UniProt O43613); experiment: % agonism on Orx1 at the OR2 IC50 concentration; format: cell-based; conditions: at the μM concentration needed to achieve IC50 in OR2
T1 sequence (O43613 1-425): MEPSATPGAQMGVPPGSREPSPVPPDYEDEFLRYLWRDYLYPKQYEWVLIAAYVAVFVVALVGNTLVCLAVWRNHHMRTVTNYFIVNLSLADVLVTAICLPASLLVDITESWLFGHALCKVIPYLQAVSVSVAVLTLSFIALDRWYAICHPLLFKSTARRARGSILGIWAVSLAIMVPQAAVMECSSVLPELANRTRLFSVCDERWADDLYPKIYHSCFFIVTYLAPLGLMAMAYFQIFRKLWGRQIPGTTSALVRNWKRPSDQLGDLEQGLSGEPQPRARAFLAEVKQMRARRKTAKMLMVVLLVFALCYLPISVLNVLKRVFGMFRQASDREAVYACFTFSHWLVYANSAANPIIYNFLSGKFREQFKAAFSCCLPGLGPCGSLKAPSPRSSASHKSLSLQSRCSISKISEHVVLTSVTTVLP
Experimental: For this example, the following protocol was used: 1.) seed cells in 20 μL Cell Plating Reagent; 2.) incubate cells overnight at 37° C. and 5% CO2; 3.) treat cells with 2.5 μL 10× antagonist prepared in Compound Dilution Buffer (For OR2 screening, 2.5 μL of 1:100 natural product sample in DiscoverX cell plating reagent.
as §1

male Sprague-Dawley rat = experiment: in vivo tolerability, dose escalation, adverse effect observation; conditions: for 15 min effects (adverse effects) / 30 min effects (adverse effects) / 60 min effects (adverse effects): n=3 rats, (x/3) animals affected; for tolerability: all four doses (30, 100, 315 and 500 mg/kg) p.o., 60 min observation
Experimental: In this example, the in vivo tolerability of Compounds 26, 21, 29, and 13 was assessed.
Naïve rats (male Sprague-Dawley rat) were acclimatized to the procedure room in their home cages up to 7 days following arrival to the test facility, with food and water available ad libitum. On the day of experiment, animals were acclimatized to the experimental room for at least one hour prior to the beginning of any experiment. All animals were tail marked, weighed and randomly assigned to treatment groups. The animals (n=3 per dose) were treated with either Compounds 26, 21, 29, and 13 (10 mL/kg, p.o.). For each compound a maximum of 4 doses were tested using a dose escalation procedure starting from 30 mg/kg. If this initial dose is well-tolerated, the dosage is increased to 100 mg/kg. If the 30 mg/kg dose is not tolerated, the dose is reduced to 15 mg/kg. Following the dose escalation procedure, if the 100 mg/kg dose is well-tolerated, the dose is escalated to 315 mg/kg. If it is not tolerated, the dose is decreased to 60 mg/kg. The pattern continues with the next decision point: if 315 mg/kg is well-tolerated, the dose is increased to the maximum of 500 mg/kg. If 315 mg/kg is not tolerated, the dose is decreased to 200 mg/kg.
The compounds would be considered not tolerated if three or more adverse effects (or any severe adverse effect) occurred at specific dose during the entire period of 60 mins. […] Mild—slight decrease in activity, responsive when provoked. Moderate—decrease in activity, less responsive when provoked.

Orx2 = molecular target: T2, Orx2 (Homo sapiens, UniProt O43614); experiment: Orx2 antagonist screening, chemiluminescent cell assay with Orexin B EC80; format: cell-based; conditions: for % Agonism Orx2 at Relative IC50: absolute percent agonism at the μM concentration of the relative OR2 IC50; for IC50: antagonist mode against Orexin B EC80, read-out: Relative IC50 of Orx2
T2 construct: DiscoverX
T2 sequence (O43614 1-444): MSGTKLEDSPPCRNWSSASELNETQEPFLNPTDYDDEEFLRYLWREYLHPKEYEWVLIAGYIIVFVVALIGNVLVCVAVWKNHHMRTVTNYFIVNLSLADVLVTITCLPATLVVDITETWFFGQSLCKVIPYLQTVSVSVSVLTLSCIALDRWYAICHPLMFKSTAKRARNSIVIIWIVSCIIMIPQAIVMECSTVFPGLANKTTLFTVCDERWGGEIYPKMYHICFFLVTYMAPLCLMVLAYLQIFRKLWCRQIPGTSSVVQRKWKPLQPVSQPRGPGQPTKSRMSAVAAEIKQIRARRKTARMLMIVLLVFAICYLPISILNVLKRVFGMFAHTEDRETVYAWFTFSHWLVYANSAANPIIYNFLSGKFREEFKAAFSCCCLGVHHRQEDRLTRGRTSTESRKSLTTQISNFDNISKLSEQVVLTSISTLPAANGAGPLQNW
Experimental: For this example, the following protocol was used: 1.) seed cells in 20 μL Cell Plating Reagent; 2.) incubate cells overnight at 37° C. and 5% CO2; 3.) treat cells with 2.5 μL 10× antagonist prepared in Compound Dilution Buffer (For OR2 screening, 2.5 μL of 1:100 natural product sample in DiscoverX cell plating reagent. Control antagonist, Seltorexant, 10× stock was prepared at 1500 nM); 4.) incubate for 30 minutes at 37° C. and 5% CO2; 5.) treat cells with 2.5 μL 10× agonist prepared in Compound Dilution Buffer (For OR2 screening, 2.5 μL of 10× Orexin B EC80, 252.7 nM); 6.) incubate for 90 minutes at 37° C. and 5% CO2; 7.) add 12.5 μL Working Detection Solution; 8.) incubate for 1 hour at room temperature in the dark; and 9.) read chemiluminescent signal.
as §1

SMILES | % Cell viability at IC50 (cells) [%] | % Agonism on Orx1 at OR2 IC50 (Orx1) [%] | 15 min effects (adverse effects) (male Sprague-Dawley rat; 30 mg/kg p.o.) | 30 min effects (adverse effects) (male Sprague-Dawley rat; 30 mg/kg p.o.) | 60 min effects (adverse effects) (male Sprague-Dawley rat; 30 mg/kg p.o.) | 15 min effects (adverse effects) (male Sprague-Dawley rat; 100 mg/kg p.o.) | 30 min effects (adverse effects) (male Sprague-Dawley rat; 100 mg/kg p.o.) | 60 min effects (adverse effects) (male Sprague-Dawley rat; 100 mg/kg p.o.) | 15 min effects (adverse effects) (male Sprague-Dawley rat; 315 mg/kg p.o.) | 30 min effects (adverse effects) (male Sprague-Dawley rat; 315 mg/kg p.o.) | 60 min effects (adverse effects) (male Sprague-Dawley rat; 315 mg/kg p.o.) | 15 min effects (adverse effects) (male Sprague-Dawley rat; 500 mg/kg p.o.) | 30 min effects (adverse effects) (male Sprague-Dawley rat; 500 mg/kg p.o.) | 60 min effects (adverse effects) (male Sprague-Dawley rat; 500 mg/kg p.o.) | tolerability (male Sprague-Dawley rat) | % Agonism Orx2 at Relative IC50 (Orx2) [%] | IC50 (Orx2) [µM] | IC50 Dilution of Orx2 (fold dilution) (Orx2; concentration of the fraction of the plant source, in fold dilution, needed to achieve IC50 of OR2)
O=c1cc(-c2ccc(O)c(O)c2)oc2cc(O)cc(O)c12 [Compound 13, 2-(3,4-dihydroxyphenyl)-5,7-dihydroxychromen-4-one] | 98.24 | 42.72 | No adverse effects | No adverse effects | Reduced activity (3/3) | No adverse effects | Reduced activity | No adverse effects | No adverse effects | No adverse effects | No adverse effects | Pica (2/3) | Reduced activity; also recorded: Pica (2/3) | Reduced activity (1/3) | well-tolerated | 50 | 72.5 | 2283.9
CC1O[C@@H](OC2C(O)[C@H](Oc3c(-c4ccc(O)cc4)oc4cc(O)cc(O)c4c3=O)OC(CO)[C@H]2O)[C@@H](O)C(O)[C@H]1O (stereo partly drawn) [Compound 24, 3-[(2S,5R)-3,5-dihydroxy-6-(hydroxymethyl)-4-[(2S,3S,5R)-3,4,5-trihydroxy-6-methyloxan-2-yl]oxyoxan-2-yl]oxy-5,7-dihydroxy-2-(4-hydroxyphenyl)chromen-4-one] | 96.12 | 48.83 |  |  |  |  |  |  |  |  |  |  |  |  |  | 45 | 191 | 
COc1cc(-c2oc3c(OC)c(O[C@@H]4O[C@H](COC(C)=O)[C@@H](O)[C@H](O)[C@H]4O[C@@H]4O[C@@H](C)[C@H](O)[C@@H](O)[C@H]4O)cc(O)c3c(=O)c2O)ccc1O [Compound 25, [(2R,3S,4S,5R,6S)-6-[3,5-dihydroxy-2-(4-hydroxy-3-methoxyphenyl)-8-methoxy-4-oxochromen-7-yl]oxy-3,4-dihydroxy-5-[(2S,3R,4R,5R,6S)-3,4,5-trihydroxy-6-methyloxan-2-yl]oxyoxan-2-yl]methyl acetate] | 91.68 | 103.7053 |  |  |  |  |  |  |  |  |  |  |  |  |  | 50 | 148 | 
O=c1c(O[C@@H]2OC[C@H](O)[C@H](O)[C@H]2O)c(-c2ccc(O)cc2)oc2cc(O)cc(O)c12 [Compound 26, 5,7-dihydroxy-2-(4-hydroxyphenyl)-3-[(2S,3R,4S,5S)-3,4,5-trihydroxyoxan-2-yl]oxychromen-4-one] | 98.95 | 60.57 | Reduced activity | No adverse effects | Reduced activity (3/3) | Reduced activity | Reduced activity | Reduced activity (3/3) | No adverse effects | No adverse effects | No adverse effects | No adverse effects | Reduced activity | No adverse effects | well-tolerated | 40 | 179 | 
O=c1c(O[C@@H]2O[C@@H](CO)[C@H](O)[C@H]2O)c(-c2ccc(O)cc2)oc2cc(O)cc(O)c12 [Compound 27, 3-[(2S,3R,4R,5S)-3,4-dihydroxy-5-(hydroxymethyl)oxolan-2-yl]oxy-5,7-dihydroxy-2-(4-hydroxyphenyl)chromen-4-one] | 101.69 | 56.18 |  |  |  |  |  |  |  |  |  |  |  |  |  | 45 | 154 | 
COc1c(O)cc2oc(-c3ccc(O[C@@H]4O[C@H](C(=O)O)[C@@H](O)[C@H](O)[C@H]4O)c(O)c3)c(OC)c(=O)c2c1O [Compound 28, (2S,3S,4S,5R,6S)-6-[4-(5,7-dihydroxy-3,6-dimethoxy-4-oxochromen-2-yl)-2-hydroxyphenoxy]-3,4,5-trihydroxyoxane-2-carboxylic acid] | 107.58 | 75.74 |  |  |  |  |  |  |  |  |  |  |  |  |  | 50 | 154 | 
Cc1cc(O)c2c(c1)C(=O)c1cc(O)cc(O[C@@H]3O[C@H](CO)[C@@H](O)[C@H](O)[C@H]3O)c1C2=O [Compound 30, 1,6-dihydroxy-3-methyl-8-[(2S,3R,4S,5S,6R)-3,4,5-trihydroxy-6-(hydroxymethyl)oxan-2-yl]oxyanthracene-9,10-dione] | 100 | 26.23 |  |  |  |  |  |  |  |  |  |  |  |  |  | 50 | 81.3 | 
